According to US5972933A, “Method of treating microbial infections” (Ed. Geistlich Sohne AG Fur Chemische Industrie, priority 1998, dated 1999):
Converted amounts (≈) assume the structure as drawn. “Also recorded” adds a separate entry of the source. Where two headings read alike, the source gives them in different places.

Columns and labels:
Enterococcus faecium = experiment: Taurolidine in vitro susceptibility, E. faecium (Example 4); assay type: cell-based
Text: (§1) The in vitro susceptibility to taurolidine of a panel of clinical isolates and reference strains of Enterococcus faecium (n=20,7 strains vancomycin resistant) and Enterococcus faecalis (n-53,5 strains vancomycin resistant) has been examined. […] In all cases, the Minimum Bacteriocidal Concentration (MBC) of taurolidine was within 2 dilutions of the corresponding value for MIC confirming a bactericidal mode of action. In vitro resistance to taurolidine was not observed.

bacteria and fungi = experiment: Antimicrobial activity (general statements); assay type: cell-based
Enterococci = experiment: Taurolidine in vitro susceptibility, Enterococci overall (Example 4); assay type: cell-based, Enterococcus faecium and Enterococcus faecalis
Text: as §1

Staph. app. = experiment: Two percent taurolidine solution tested against bacteria, Staph. app. (Example 5); assay type: cell-based; conditions: 5×10^4 CFU/well
Protocol: (§2) Two percent taurolidine solution was tested against various bacteria at 5×10^4 CFU/well, according to Manual of Clinical Microbiology, 6th edition, P. R. Murray et al., pp. 1334-1335.

E. faecalis = experiment: Two percent taurolidine solution tested against bacteria, E. faecalis (Example 5); assay type: cell-based; conditions: Enterococcus faecalis, 24 h, 5×10^4 CFU/well, one line per sample (strain)
Protocol: as §2

O=S1(=O)CCN(CN2CCS(=O)(=O)NC2)CN1 [Taurolidine]
MIC (Enterococcus faecium; E. faecium strains, read-out: MIC range): 95 to 375 µg/mL (≈ 334 to 1320 µM)
MBC (Enterococcus faecium; E. faecium, VAN R strains, read-out: MBC, Avg.): 446 µg/mL (≈ 1570 µM)
MBC (Enterococcus faecium; E. faecium, VAN R strains, read-out: MBC, Max.): 500 µg/mL (≈ 1760 µM)
MBC (Enterococcus faecium; E. faecium, VAN R strains, read-out: MBC, Mean): 446 µg/mL (≈ 1570 µM)
MBC (Enterococcus faecium; E. faecium, VAN R strains, read-out: MBC, Median): 500 µg/mL (≈ 1760 µM)
MBC (Enterococcus faecium; E. faecium, VAN R strains, read-out: MBC, Min.): 375 µg/mL (≈ 1320 µM)
MBC (Enterococcus faecium; E. faecium, VAN R strains, read-out: MBC, Mode): 500 µg/mL (≈ 1760 µM)
MIC (Enterococcus faecium; E. faecium, VAN R strains, read-out: MIC, Avg.): 161 µg/mL (≈ 566 µM)
MIC (Enterococcus faecium; E. faecium, VAN R strains, read-out: MIC, Max.): 250 µg/mL (≈ 879 µM)
MIC (Enterococcus faecium; E. faecium, VAN R strains, read-out: MIC, Mean): 161 µg/mL (≈ 566 µM)
MIC (Enterococcus faecium; E. faecium, VAN R strains, read-out: MIC, Median): 95 µg/mL (≈ 334 µM)
MIC (Enterococcus faecium; E. faecium, VAN R strains, read-out: MIC, Min.): 95 µg/mL (≈ 334 µM)
MIC (Enterococcus faecium; E. faecium, VAN R strains, read-out: MIC, Mode): 95 µg/mL (≈ 334 µM)
MBC (Enterococcus faecium; E. faecium, VAN S strains, read-out: MBC, Avg.): 666 µg/mL (≈ 2340 µM)
MBC (Enterococcus faecium; E. faecium, VAN S strains, read-out: MBC, Max.): 1000 µg/mL (≈ 3520 µM)
MBC (Enterococcus faecium; E. faecium, VAN S strains, read-out: MBC, Mean): 666 µg/mL (≈ 2340 µM)
MBC (Enterococcus faecium; E. faecium, VAN S strains, read-out: MBC, Median): 750 µg/mL (≈ 2640 µM)
MBC (Enterococcus faecium; E. faecium, VAN S strains, read-out: MBC, Min.): 500 µg/mL (≈ 1760 µM)
MBC (Enterococcus faecium; E. faecium, VAN S strains, read-out: MBC, Mode): 750 µg/mL (≈ 2640 µM)
MIC (Enterococcus faecium; E. faecium, VAN S strains, read-out: MIC, Avg.): 323 µg/mL (≈ 1140 µM)
MIC (Enterococcus faecium; E. faecium, VAN S strains, read-out: MIC, Max.): 375 µg/mL (≈ 1320 µM)
MIC (Enterococcus faecium; E. faecium, VAN S strains, read-out: MIC, Mean): 323 µg/mL (≈ 1140 µM)
MIC (Enterococcus faecium; E. faecium, VAN S strains, read-out: MIC, Median): 375 µg/mL (≈ 1320 µM)
MIC (Enterococcus faecium; E. faecium, VAN S strains, read-out: MIC, Min.): 125 µg/mL (≈ 440 µM)
MIC (Enterococcus faecium; E. faecium, VAN S strains, read-out: MIC, Mode): 375 µg/mL (≈ 1320 µM)
MBC (Enterococcus faecium; E. faecium, all strains, read-out: MBC, Avg.): 581 µg/mL (≈ 2040 µM)
MBC (Enterococcus faecium; E. faecium, all strains, read-out: MBC, Max.): 1000 µg/mL (≈ 3520 µM)
MBC (Enterococcus faecium; E. faecium, all strains, read-out: MBC, Mean): 581 µg/mL (≈ 2040 µM)
MBC (Enterococcus faecium; E. faecium, all strains, read-out: MBC, Median): 500 µg/mL (≈ 1760 µM)
MBC (Enterococcus faecium; E. faecium, all strains, read-out: MBC, Min.): 375 µg/mL (≈ 1320 µM)
MBC (Enterococcus faecium; E. faecium, all strains, read-out: MBC, Mode): 500 µg/mL (≈ 1760 µM)
MIC (Enterococcus faecium; E. faecium, all strains, read-out: MIC, Avg.): 260 µg/mL (≈ 914 µM)
MIC (Enterococcus faecium; E. faecium, all strains, read-out: MIC, Max.): 375 µg/mL (≈ 1320 µM)
MIC (Enterococcus faecium; E. faecium, all strains, read-out: MIC, Mean): 260 µg/mL (≈ 914 µM)
MIC (Enterococcus faecium; E. faecium, all strains, read-out: MIC, Median): 250 µg/mL (≈ 879 µM)
MIC (Enterococcus faecium; E. faecium, all strains, read-out: MIC, Min.): 95 µg/mL (≈ 334 µM)
MIC (Enterococcus faecium; E. faecium, all strains, read-out: MIC, Mode): 375 µg/mL (≈ 1320 µM)
rate of bacterial killing (bacteria and fungi): kills bacteria slowly
resistance development (bacteria and fungi): Resistance has not been observed either in vivo or in vitro; also recorded: no resistance development by microbes has been observed
in vitro effectiveness against bacterial strains (bacteria and fungi; in vitro, including multi-resistant strains, VRE and MRSA): effective against all gram negative and gram positive bacterial strains tested to-date
in vitro effectiveness against antibiotic-resistant pathogens (bacteria and fungi; in vitro, pathogens resistant to methicillin and vancomycin): fully effective in vitro
antifungal activity (bacteria and fungi; yeast-like and filamentous fungi): useful activity against most yeast-like and filamentous fungi
difference in degree of susceptibility between E. faecalis and E. faecium (Enterococci): no difference in degree of susceptibility
In vitro resistance to taurolidine (Enterococci; E. faecium and E. faecalis): not observed
MBC relative to corresponding MIC (Enterococci; all cases, bactericidal mode of action): ≤ 2 dilutions
difference in MICs or MBCs between strains (Enterococci; vancomycin-sensitive or vancomycin-resistant, various locations across Europe): No differences were noted
MBC (Staph. app.; 24 h): 375 µg/mL (≈ 1320 µM)
MIC (Staph. app.; 24 h, read-out: MIC 24 h): 190 µg/mL (≈ 668 µM)
MIC (Staph. app.; 48 h, read-out: MIC 48 h): 250 µg/mL (≈ 879 µM)
MBC (E. faecalis): 500 µg/mL (≈ 1760 µM)
